Reference: patent publication US20070025986A1, “Modulation of HCN channels by second messengers” (priority 2003, published 2007)
Read-outs that look alike come from different tables or passages of the source. No end group written: not given here.

Columns and labels:
[1] = system: native pacemaker channels (IH); conditions: cited from earlier work
[2] = system: HCN1 channel; assay: Two microelectrode voltage clamp (2MEV) of HCN1 and HCN1 mutants expressed in Xenopus oocytes; format: cell-based, mouse; conditions: forskolin 10 μM, 30 min, SQ-22536 300 μM, 3 hr
[3] = DRG: Dorsal root ganglion neurons
[4] = ORN: Olfactory receptor neurons
[5] = MTNB: medial nucleus of the trapezoid body
[6] = SO: CA1 stratum oriens-alveus interneuron
[7] = CP: Cerebellar purkinje neurons
[8] = ADn: Thalamic anterior dorsal relay neurons
[9] = CA1: CA1 pyramidal neurons or unidentified CA1 cells

## OC[C@H]1O[C@@H](n2cnc3c(NC4CCCCC4)ncnc32)[C@H](O)[C@@H]1O [N6-CHA]
[1]; [3]
  Δ V1/2: −7 mV
[1]; SA: sinoatrial node
  Δ V1/2: −6 mV

## NCC(CC(=O)O)c1ccc(Cl)cc1 (stereo not shown) [Baclofen]
[1]; SNZC: Substantia nigra zona compacta
  Δ IMAX: −11%
[1]; VT: Ventral tegmental neurons
  Δ IMAX: −20%

## VIP: agonist listed for PAC1 receptor (HSDAVFTDNYTRLRKQMAVKKYLNSILN; ends and bridges not checked; UniProt P01282 125-152, looked up)
[1]; TR: thalamic relay
  Δ IMAX: +30% TR
  Δ V1/2: +7 mV TR

## EGF: agonist listed for EGF receptor
[1]; SA: sinoatrial node
  Δ IMAX: +23% SA

## NCCc1ccc(O)c(O)c1 [Dopamine]
[1]; [4]
  Δ IMAX: −50%
  Δ V1/2: −9 mV
[1]; PG: Pyloric ganglion motor neurons
  Δ V1/2: +20 mV PG
[1]; ROD: Rod photoreceptors
  Δ IMAX: −30% ROD
  Δ V1/2: −17 mV
[1]; VT: Ventral tegmental neurons
  Δ IMAX: −20%

## Clc1cccc(Cl)c1N=C1NCCN1 [Clonidine]
[1]; [3]
  Δ IMAX: HG, −40% DRG
[1]; HG: Hypoglossal motor neurons
  Δ V1/2: −4 mV HG

## CCCCC[C@H](O)/C=C/[C@H]1[C@H](O)CC(=O)[C@@H]1C/C=C\CCCC(=O)O [PGE2]
[1]; NG: Nodose ganglion
  Δ IMAX: +18% NG, TG
  Δ V1/2: +6 mV NG, TG
[1]; TG: Trigeminal ganglion
  Δ IMAX: +18% NG, TG
  Δ V1/2: +6 mV NG, TG

## NC[C@H](O)c1ccc(O)c(O)c1 [NorE]
[1]; AT: atrial myocyte
  Δ IMAX: +90%
  Δ V1/2: +11 mV
[1]; BC: cerebllar basket cell
  Δ V1/2: +6 mV
[1]; ECM: Embryonic cardiomyocytes
  Δ IMAX: +65%
[1]; [5]
  Δ V1/2: +12 mV
[1]; [6]
  Δ IMAX: +30%
[1]; TR: thalamic relay
  Δ IMAX: ECM; +31% TR; BC;
  Δ V1/2: +5 mV

## AT-II: agonist listed for angiotensin AT½ receptor (DRVYIHPF; Angiotensin-2; UniProt P01019 25-32, looked up)
[1]; PVN: Hypothalamic paraventricular neurons
  Δ V1/2: +8m PVN

## C[N+](C)(C)CCOC(N)=O [carbachol]
[1]; ECM: Embryonic cardiomyocytes
  Δ IMAX: −41%
[1]; LGN
  Δ IMAX: CA1; +43% LGN
  Δ V1/2: CA1; +5 mV LGN
[1]; PF: cardiac purkinje fibre
  Δ V1/2: −8 mV SA, PF
[1]; SA: sinoatrial node
  Δ V1/2: −8 mV SA, PF

## COc1cc(CC(C)N)c(OC)cc1I (stereo not shown) [DOI]
[1]; [7]
  Δ V1/2: −8 mV
[1]; FM: Facial motor neurons
  Δ IMAX: +25%
[1]; VT: Ventral tegmental neurons
  Δ V1/2: −7 m

## Nc1ncnc2c1ncn2C1CCCO1 (stereo not shown) [SQ-22536]
[2]; HCN1-R538E
  Effect on gating: not altered
[2]; wild type HCN1
  Effect on V1/2 of activation: inhibited

## NCCc1c[nH]c2ccc(O)cc12 [5-HT]
[1]; [8]
  Δ V1/2: +15 mV
[1]; BSMN: Brainstem motor neurons
  Δ V1/2: +6 mV BSMN
[1]; CMN: crustacean motor neurons
  Δ IMAX: +20%
  Δ V1/2: +10 mV
[1]; [7]
  Δ V1/2: −8 mV
[1]; [3]
  Δ V1/2: +6 mV
[1]; FM: Facial motor neurons
  Δ IMAX: +25%
[1]; PH: Prepositus Hyperglossi neurons
  Δ IMAX: +30%
[1]; ST: Solitary tract neurons
  Δ IMAX: +100% ST
[1]; TR: thalamic relay
  Δ IMAX: +20%
  Δ V1/2: +5 mV
[1]; VT: Ventral tegmental neurons
  Δ V1/2: −7 m

## OC[C@H]1O[C@@H](n2cnc3c(NC4CCCC4)ncnc32)[C@H](O)[C@@H]1O [N6-CPA]
[1]; [3]
  Δ V1/2: −7 mV
[1]; SA: sinoatrial node
  Δ V1/2: −6 mV

## NCCc1c[nH]c2ccc(C(N)=O)cc12 [5CT]
[1]; [8]
  Δ V1/2: +15 mV
[1]; [9]
  Δ IMAX: +50%
  Δ V1/2: +5 mV CA1
[1]; [3]
  Δ V1/2: +6 mV

## CCCCCCCC/C=C/CCCCCCCC(=O)OCC(CO)OC(C)=O (stereo not shown) [OAG]
[1]; SNPC: Substantia nigra pars compacta
  Δ IMAX: −49% SNPC

## CCCN(CCC)C1CCc2cccc(O)c2C1 (stereo not shown) [8-OH-DPAT]
[1]; ST: Solitary tract neurons
  Δ IMAX: +100% ST

## CC(C)NCC(O)c1ccc(O)c(O)c1 (stereo not shown) [Isoproterenol]
[1]; AT: atrial myocyte
  Δ IMAX: +90%
  Δ V1/2: +11 mV
[1]; BC: cerebllar basket cell
  Δ V1/2: +6 mV
[1]; ECM: Embryonic cardiomyocytes
  Δ IMAX: +65%
[1]; [5]
  Δ V1/2: +12 mV
[1]; [6]
  Δ IMAX: +30%
[1]; TR: thalamic relay
  Δ IMAX: ECM; +31% TR; BC;
  Δ V1/2: +5 mV

## Sub P: agonist listed for tachykinin NK 1/2/3 receptor (RPKPQQFFGLM; ends and bridges not checked; UniProt P20366 58-68, looked up)
[1]; NG: Nodose ganglion
  Δ V1/2: −20 mV. NG

## Nc1ncnc2c1ncn2[C@@H]1O[C@H](CO)[C@@H](O)[C@H]1O [Adenosine]
[1]; [3]
  Δ V1/2: −7 mV
[1]; SA: sinoatrial node
  Δ V1/2: −6 mV

## PACAP38: agonist listed for PAC1 receptor (HSDGIFTDSYSRYRKQMAVKKYLAAVLGKRYKQRVKNK; ends and bridges not checked; UniProt P18509 132-169, looked up)
[1]; TR: thalamic relay
  Δ IMAX: +30% TR
  Δ V1/2: +7 mV TR

B1: BDNF: neurotrophin, agonist listed for TrkA/B/C, P75 (protein, UniProt P23560 19-247, looked up)
Neurotrophic factor BDNF …: APMKEANIRGQGGLAYPGVRTHGTLESVNGPKAGSRGLTSLADTFEHVIEELLDEDQKVRPNEENNKDADLYTSRVMLSSQVPLEPPLLFLLEEYKNYLDAANMSMRVRRHSDPARRGELSVCDSISEWVTAADKKTAVDMSGGTVTVLEKVPVSKGQLKQYFYETKCNPMGYTKEGCRGIDKRHWNSQCRTTQSYVRALTMDSKKRIGWRFIRIDTSCVCTLTIKRGR
[1]; PBC: Pre-botzinger complex
  Δ IMAX: −46% PBC
  Δ V1/2: −17 mV PBC
